Assay results published in patent publication US20110039763A1, “TARGETED ANTIMICROBIAL MOIETIES” (C3 JIAN, INC., priority 2009, published 2011).
Entries after “also recorded” stand apart in the source; their conditions may differ.

Tested on: microorganisms
Experiment: Targeting peptide binding to target microorganisms (Tables 3, 10, 12)
Conditions: peptide binding in aqueous buffers that varied with peptide solubility; preferably 1x PBS
Source text: In certain embodiments, the targeting moiety comprises one or more targeting peptides that bind particular bacteria, fungi, and/or yeasts, and/or algae, and/or viruses and/or that bind particular groups of bacteria, and/or groups of fungi, and/or groups of yeasts, and/or groups of algae.
In certain embodiments the targeting peptides include peptides comprising or consisting of one or more of the amino acid sequences shown in Table 3 (SEQ ID NOs:13-1566). In various embodiments the peptides include peptides comprising or consisting of the retro, inverso, retro-inverso, and/or beta form of one or more of the amino acid sequences shown in Table 3. Also contemplated are circular permutations of these sequences as well as peptides comprising or consisting of the retro, inverso, retro-inverso, and/or beta form of such circular permutations.
In certain embodiments the targeting peptide can comprise one or more domains capable of binding, specifically binding, or preferentially binding to a microorganism, e.g., a target microbial organism (see, e.g., Table 3). In certain embodiment, the targeting peptide be identified via screening peptide libraries. For example, a phage display peptide library can be screened against a target microbial organism or a desired antigen or epitope thereof. Any peptide identified through such screening can be used as a targeting peptide for the target microbial organism.

Row | Substance | Target(s) (microorganism bound by the targeting peptide)
1 | 1T-59 (AVGNNLGKDNDSGHRGKKHRKHKHR; Peptide with targeting and/or antimicrobial activity) | S. aureus; also recorded: S. epidermidis; also recorded: P. aeruginosa
2 | 1T-60 (YLTSLGLDAAEQAQGLLTILKG; Peptide with targeting and/or antimicrobial activity) | S. aureus; also recorded: S. epidermidis; also recorded: C. jeikeium; also recorded: C. striatum; also recorded: P. aeruginosa
3 | 1T-61 (HATLLPAVREAISRQLLPALVPRG; Peptide with targeting and/or antimicrobial activity) | P. aeruginosa
4 | 1T-62 (GCKGCAQRDPCAEPEPYFRLR; Peptide with targeting and/or antimicrobial activity) | S. epidermidis; also recorded: P. aeruginosa
5 | 1T-63 (EPLILKELVRNLFLFCYARALR; Peptide with targeting and/or antimicrobial activity) | S. aureus; also recorded: S. epidermidis; also recorded: C. jeikeium; also recorded: C. xerosis; also recorded: C. striatum; also recorded: P. aeruginosa
6 | 1T-64 (QTVHHIHMHVLGQRQMHWPPG; Peptide with targeting and/or antimicrobial activity) | S. aureus; also recorded: S. epidermidis; also recorded: C. jeikeium; also recorded: C. xerosis; also recorded: C. striatum; also recorded: P. aeruginosa
7 | 1T-65 (HARAAVGVAELPRGAAVEVELIAAVRP; Peptide with targeting and/or antimicrobial activity) | S. mutans; also recorded: S. aureus; also recorded: S. epidermidis; also recorded: C. jeikeium; also recorded: C. xerosis; also recorded: C. striatum; also recorded: P. aeruginosa
8 | 1T-66 (DTDCLSRAYAQRIDELDKQYAGIDKPL; Peptide with targeting and/or antimicrobial activity) | S. mutans; also recorded: S. aureus; also recorded: S. epidermidis; also recorded: C. jeikeium; also recorded: C. xerosis; also recorded: C. striatum; also recorded: P. aeruginosa
9 | 1T-67 (GQRQRLTCGRVSGCSEGPSREAAR; Peptide with targeting and/or antimicrobial activity) | S. aureus; also recorded: S. epidermidis; also recorded: C. jeikeium; also recorded: C. xerosis; also recorded: C. striatum; also recorded: P. aeruginosa
10 | 1T-68 (GGTKEIVYQRG; Peptide with targeting and/or antimicrobial activity) | S. mutans; also recorded: S. aureus; also recorded: C. jeikeium; also recorded: C. xerosis; also recorded: C. striatum; also recorded: P. aeruginosa
11 | 1T-69 (ILSQEADRKKLF; Peptide with targeting and/or antimicrobial activity) | S. mutans; also recorded: P. aeruginosa
12 | 1T-70 (NRQAQGERAHGEQQG; Peptide with targeting and/or antimicrobial activity) | S. aureus; also recorded: C. jeikeium; also recorded: P. aeruginosa
13 | 1T-71 (KIDTNQWPPNKEG; Peptide with targeting and/or antimicrobial activity) | P. aeruginosa
14 | 1T-72 (EPTDGVACKER; Peptide with targeting and/or antimicrobial activity) | P. aeruginosa
15 | 1T-73 (GWWEELLHETILSKFKITKALELPIQL; Peptide with targeting and/or antimicrobial activity) | S. pneumoniae
16 | 1T-74 (DIDWGRKISCAAGVAYGAIDGCATTV; Peptide with targeting and/or antimicrobial activity) | S. pneumoniae
17 | 1T-75 (GVARGLQLGIKTRTQWGAATGAA; Peptide with targeting and/or antimicrobial activity) | S. pneumoniae
18 | 1T-76 (EMRLSKFFRDFILWRKK; Peptide with targeting and/or antimicrobial activity) | S. pneumoniae
19 | 1T-77 (EMRISRIILDFLFLRKK; Peptide with targeting and/or antimicrobial activity) | S. pneumoniae
20 | 1T-78 (FFKTIFVLILGALGVAAGLYIEKNYIDK; Peptide with targeting and/or antimicrobial activity) | S. pneumoniae

Row | Substance | Target(s) (microorganism bound by the targeting peptide)
21 | 1T-79 (FGTPWSITNFWKKNFNDRPDFDSDRRRY; Peptide with targeting and/or antimicrobial activity) | S. pneumoniae
22 | 1T-80 (GGNLGPGFGVIIP; Peptide with targeting and/or antimicrobial activity) | S. pneumoniae
23 | 1T-81 (AIATGLDIVDGKFDGYLWA; Peptide with targeting and/or antimicrobial activity) | S. pneumoniae
24 | 1T-82 (FGVGVGIALFMAGYAIGKDLRKKFGKSC; Peptide with targeting and/or antimicrobial activity) | S. pneumoniae
25 | 1T-83 (QKPRKNETFIGYIQRYDIDGNGYQSLPCPQN; Peptide with targeting and/or antimicrobial activity) | S. pneumoniae
26 | 1T-84 (FRKKRYGLSILLWLNAFTNLVNSIHAFYMTLF; Peptide with targeting and/or antimicrobial activity) | S. pneumoniae
27 | 1T-86 (HRKNPVLGVGRRHRAHNVA; Peptide with targeting and/or antimicrobial activity) | S. mitis; also recorded: S. oralis; also recorded: S. salivarious
28 | 1T-87 (EAVGQDLVDAHHP; Peptide with targeting and/or antimicrobial activity) | S. mitis; also recorded: S. mutans; also recorded: S. oralis
29 | 1T-89 (HEDDKRRGMSVEVLGFEVVQHEE; Peptide with targeting and/or antimicrobial activity) | S. mitis; also recorded: S. mutans
30 | 1T-90 (RNVIGQVL; Peptide with targeting and/or antimicrobial activity) | S. gordonii; also recorded: S. mitis; also recorded: S. mutans; also recorded: S. oralis; also recorded: S. sanguinis
31 | 1T-91 (TSVRPGAAGAAVPAGAAGAAGAGWRWP; Peptide with targeting and/or antimicrobial activity) | S. mitis; also recorded: S. mutans; also recorded: S. oralis; also recorded: S. sanguinis
32 | 1T-92 (GQDEGQRRAGVGEGQGVDG; Peptide with targeting and/or antimicrobial activity) | S. mitis; also recorded: S. mutans
33 | 1T-93 (AMRSVNQA; Peptide with targeting and/or antimicrobial activity) | S. epidermidis; also recorded: S. gordonii; also recorded: S. mitis; also recorded: S. mutans; also recorded: S. oralis; also recorded: S. sanguinis
34 | 1T-94 (DQVAHSGDMLVQARRRDS; Peptide with targeting and/or antimicrobial activity) | S. mitis; also recorded: S. mutans; also recorded: S. oralis
35 | 1T-95 (GHLLRVGGRVGGVGGVAGACAQPFGGQ; Peptide with targeting and/or antimicrobial activity) | S. gordonii; also recorded: S. mitis; also recorded: S. mutans; also recorded: S. oralis; also recorded: S. sanguinis
36 | 1T-96 (VAGACAQPFGGQ; Peptide with targeting and/or antimicrobial activity) | S. gordonii; also recorded: S. mitis; also recorded: S. mutans; also recorded: S. oralis; also recorded: S. sanguinis
37 | 1T-99 (MKAWLGQ; Peptide with targeting and/or antimicrobial activity) | S. gordonii; also recorded: S. mitis; also recorded: S. mutans; also recorded: S. oralis; also recorded: S. sanguinis
38 | 1T-100 (LDPLEPRIAPPGDRSHQGAPACHRDPLRGRSARDAER; Peptide with targeting and/or antimicrobial activity) | S. gordonii; also recorded: S. mitis; also recorded: S. mutans
39 | 1T-101 (RLRVGRATDLPLTSFAVGVVRNLPDAPAH; Peptide with targeting and/or antimicrobial activity) | A. naeslundii; also recorded: P. gingivalis; also recorded: S. epidermidis; also recorded: S. gordonii; also recorded: S. mitis; also recorded: S. mutans; also recorded: S. oralis; also recorded: S. sanguinis
